Patent US20240400555A1 (Initial Therapeutics, Inc., priority 2023, published 2024)

Test system: HCT-116 Firefly-luciferase reporter cells
Experiment: Cellular c-MYC Reporter Assay
Type: cell-based
Conditions: Homo sapiens; untitled table following Table 8a; HCT-116 Firefly-luciferase reporter cells, 24 h; read-out: pIC50 (converted)
Method: HCT-116 Firefly-luciferase reporter cells (BPS Bioscience) were seeded in 96-well tissue-culture treated sterile plates (Greiner Bio-One) at 5e4 cells/mL in 100 μL complete growth media (McCoy's 5A+10% FBS, +1% Pen-Strep, +1% G418). Cells were incubated at 37° C. with 5% CO2 for 4-6 h then treated with 3× compound solution in 50 μL complete growth media for a final volume of 150 μL per well with 0.2% DMSO. After 24 h incubation at 37° C. with 5% CO2, plates were allowed to equilibrate to RT for 20 min then developed by addition of 100 μL ONE-Glo Luciferase detection reagent (Promega), incubated at RT for 10 min. Luminescence was recorded using a SpectraMax i3x plate reader (Molecular Devices) and analyzed using Prism GraphPad 9 software.

Row | SMILES | IC50
1 | Cn1ncc2ccnc(N(C(=O)c3ccc(Nc4ncccn4)cc3F)[C@@H]3CCCNC3)c21 [Example 119, (R)-2-fluoro-N-(1-methyl-1H-pyrazolo[3,4-c]pyridin-7-yl)-N-(piperidin-3-yl)-4-(pyrimidin-2-ylamino)benzamide] | 1.41 µM
2 | Cc1csc2ccnc(N(C(=O)c3ccc(-n4nnc5cccnc54)cc3F)[C@@H]3CCCNC3)c12 [Example 121, 2-fluoro-N-(3-methylthieno[3,2-c]pyridin-4-yl)-N-[(3R)-3-piperidyl]-4-(triazolo[4,5-b]pyridin-3-yl)benzamide] | 0.038 µM
3 | O=C(c1ccc(-n2nnc3cccnc32)cc1F)N(c1nccc2scc(Br)c12)[C@@H]1CCCNC1 [Example 122, (R)-4-(3H-[1,2,3]triazolo[4,5-b]pyridin-3-yl)-N-(3-bromothieno[3,2-c]pyridin-4-yl)-2-fluoro-N-(piperidin-3-yl)benzamide] | 0.123 µM
4 | Cc1cccc2ccnc(N(C(=O)c3ccc(-c4n[nH]c5c4CCCC5)cc3F)[C@@H]3CCCNC3)c12 [Example 123, (R)-2-fluoro-N-(8-methylisoquinolin-1-yl)-N-(piperidin-3-yl)-4-(4,5,6,7-tetrahydro-1H-indazol-3-yl) benzamide] | 5.01 µM
5 | Cc1cccc2ccnc(N(C(=O)c3ccc(N)cc3F)[C@@H]3CCCNC3)c12 [Example 124, (R)-4-amino-2-fluoro-N-(8-methylisoquinolin-1-yl)-N-(piperidin-3-yl) benzamide] | 3.89 µM
6 | Cc1cccc2ccnc(N(C(=O)c3ccc(-c4nnn(C)n4)cc3F)[C@@H]3CCCNC3)c12 [Example 125, (R)-2-fluoro-4-(2-methyl-2H-tetrazol-5-yl)-N-(8-methylisoquinolin-1-yl)-N-(piperidin-3-yl) benzamide] | 0.0245 µM
7 | Cc1cccc2ccnc(N(C(=O)c3ccc(-c4cnn(C)c4-c4ccccc4)cc3F)[C@@H]3CCCNC3)c12 [Example 126, (R)-2-fluoro-4-(1-methyl-5-phenyl-1H-pyrazol-4-yl)-N-(8-methylisoquinolin-1-yl)-N-(piperidin-3-yl) benzamide] | 0.355 µM
8 | Cc1nnc(-c2ccc(C(=O)N(c3nccc4cccc(C)c34)[C@@H]3CCCNC3)c(F)c2)s1 [Example 127, (R)-2-fluoro-4-(5-methyl-1,3,4-thiadiazol-2-yl)-N-(8-methylisoquinolin-1-yl)-N-(piperidin-3-yl) benzamide] | 0.339 µM
9 | Cc1cccc2ccnc(N(C(=O)c3ccc(-c4nnn[nH]4)cc3)[C@H]3CCCNC3)c12 [Example 128, (S)—N-(8-methylisoquinolin-1-yl)-N-(piperidin-3-yl)-4-(1H-tetrazol-5-yl)benzamide] | > 10 µM
10 | COC(=O)c1ccc2ccnc(N(C(=O)c3ccc(-n4nnc5cccnc54)cc3F)[C@@H]3CCCNC3)c2c1 [Example 129, methyl (R)-1-(4-(3H-[1,2,3]triazolo[4,5-b]pyridin-3-yl)-2-fluoro-N-(piperidin-3-yl)benzamido)isoquinoline-7-carboxylate] | 0.339 µM
11 | CCOC(=O)/C=C/c1ccc2ccnc(N(C(=O)c3ccc(-n4nnc5cccnc54)cc3F)[C@@H]3CCCNC3)c2c1 [Example 130, ethyl (R,E)-3-(1-(4-(3H-[1,2,3]triazolo[4,5-b]pyridin-3-yl)-2-fluoro-N-(piperidin-3-yl)benzamido)isoquinolin-7-yl)acrylate] | 2.29 µM
12 | Cc1cccc2ccnc(N(C(=O)c3ccc(Nc4cccn(C)c4=O)cc3F)[C@@H]3CCCNC3)c12 [Example 131, (R)-2-fluoro-4-((1-methyl-2-oxo-1,2-dihydropyridin-3-yl)amino)-N-(8-methylisoquinolin-1-yl)-N-(piperidin-3-yl)benzamide] | 1.91 µM
13 | Cc1cccc2ccnc(N(C(=O)c3ccc(Nc4ccc[nH]c4=O)cc3F)[C@@H]3CCCNC3)c12 [Example 132, (R)-2-fluoro-N-(8-methylisoquinolin-1-yl)-4-((2-oxo-1,2-dihydropyridin-3-yl)amino)-N-(piperidin-3-yl)benzamide] | 1.58 µM
14 | Cc1cccc2ccnc(N(C(=O)c3ccc(Oc4ncccn4)cc3F)[C@@H]3CCCNC3)c12 [Example 133, 2-fluoro-N-(8-methyl-1-isoquinolyl)-N-(3-piperidyl)-4-pyrimidin-2-yloxy-benzamide] | 0.269 µM
15 | O=C(c1ccc(-n2nnc3cccnc32)cc1F)N(c1nccc2ccc(CCCO)cc12)[C@@H]1CCCNC1 [Example 134, (R)-4-(3H-[1,2,3]triazolo[4,5-b]pyridin-3-yl)-2-fluoro-N-(7-(3 hydroxypropyl)isoquinolin-1-yl)-N-(piperidin-3-yl)benzamide] | 0.575 µM
16 | O=C(c1ccc(-n2nnc3cccnc32)cc1F)N(c1nccc2ccc(/C=C/CO)cc12)[C@@H]1CCCNC1 [Example 135, (R)-4-(3H-[1,2,3]triazolo[4,5-b]pyridin-3-yl)-2-fluoro-N-(7-(3-hydroxyprop-1-en-1-yl)isoquinolin-1-yl)-N-(piperidin-3-yl)benzamide] | 0.575 µM
17 | O=C(c1ccc(-n2nnc3cccnc32)cc1F)N(c1ncccc1-c1cc[nH]n1)[C@@H]1CCCNC1 [Example 136, (R)—N-(3-(1H-pyrazol-3-yl)pyridin-2-yl)-4-(3H-[1,2,3]triazolo[4,5-b]pyridin-3-yl)-2-fluoro-N-(piperidin-3-yl)benzamide] | 1.1 µM
18 | Cc1ccnc(N(C(=O)c2ccc(-n3nnc4cccnc43)cc2F)[C@@H]2CCCNC2)c1/C=C/CCO [Example 137, (R,E)-4-(3H-[1,2,3]triazolo[4,5-b]pyridin-3-yl)-2-fluoro-N-(3-(4-hydroxybut-1-en-1-yl)-4-methylpyridin-2-yl)-N-(piperidin-3-yl)benzamide] | 2.95 µM
19 | Cc1cccc2ccnc(N(C(=O)c3ccc(-n4nnc5ccc(-c6cc[nH]n6)nc54)cc3F)[C@@H]3CCCNC3)c12 [Example 138, (R)-4-(5-(1H-pyrazol-3-yl)-3H-[1,2,3]triazolo[4,5-b]pyridin-3-yl)-2-fluoro-N-(8-methylisoquinolin-1-yl)-N-(piperidin-3-yl)benzamide] | 0.0447 µM
20 | CNC(=O)c1ccc2nnn(-c3ccc(C(=O)N(c4nccc5cccc(C)c45)[C@@H]4CCCNC4)c(F)c3)c2n1 [Example 139, (R)-3-(3-fluoro-4-((8-methylisoquinolin-1-yl)(piperidin-3-yl)carbamoyl)phenyl)-N-methyl-3H-[1,2,3]triazolo[4,5-b]pyridine-5-carboxamide] | 0.17 µM
21 | COC(=O)c1ccc2nnn(-c3ccc(C(=O)N(c4nccc5cccc(C)c45)[C@@H]4CCCNC4)c(F)c3)c2n1 [Example 140, methyl (R)-3-(3-fluoro-4-((8-methylisoquinolin-1-yl)(piperidin-3-yl)carbamoyl)phenyl)-3H-[1,2,3]triazolo[4,5-b]pyridine-5-carboxylate] | 0.24 µM
22 | O=C(c1ccc(I)cc1F)N(c1nccc2cccc(Cl)c12)[C@@H]1CCCNC1 [Example 141, (R)—N-(8-chloroisoquinolin-1-yl)-2-fluoro-4-iodo-N-(piperidin-3-yl)benzamide] | 1.91 µM
23 | CCc1nnn(-c2ccc(C(=O)N(c3nccc4cccc(C)c34)[C@@H]3CCCNC3)c(F)c2)n1 [Example 142, (R)-4-(5-ethyl-2H-tetrazol-2-yl)-2-fluoro-N-(8-methylisoquinolin-1-yl)-N-(piperidin-3-yl)benzamide] | 0.0794 µM
24 | O=C(c1ccc(-n2nnc3cccnc32)cc1F)N(c1nccc2cc(Br)ccc12)[C@@H]1CCCNC1 [Example 143, (R)-4-(3H-[1,2,3]triazolo[4,5-b]pyridin-3-yl)-N-(6-bromoisoquinolin-1-yl)-2-fluoro-N-(piperidin-3-yl)benzamide] | 0.724 µM
25 | O=C(c1ccc(-n2nnc3cccnc32)cc1F)N(c1nccc2cc(F)ccc12)[C@@H]1CCCNC1 [Example 144, (R)-4-(3H-[1,2,3]triazolo[4,5-b]pyridin-3-yl)-2-fluoro-N-(6-fluoroisoquinolin-1-yl)-N-(piperidin-3-yl)benzamide] | 0.603 µM
26 | COc1ccc2c(N(C(=O)c3ccc(-n4nnc5cccnc54)cc3F)[C@@H]3CCCNC3)nccc2c1 [Example 145, (R)-4-(3H-[1,2,3]triazolo[4,5-b]pyridin-3-yl)-2-fluoro-N-(6-methoxyisoquinolin-1-yl)-N-(piperidin-3-yl)benzamide] | 0.525 µM
27 | O=C(c1ccc(-n2nnc3cccnc32)cc1F)N(c1nccc2cc(CO)ccc12)[C@@H]1CCCNC1 [Example 146, (R)-4-(3H-[1,2,3]triazolo[4,5-b]pyridin-3-yl)-2-fluoro-N-(6-(hydroxymethyl)isoquinolin-1-yl)-N-(piperidin-3-yl)benzamide] | 0.562 µM
28 | N#Cc1ccc2c(N(C(=O)c3ccc(-n4nnc5cccnc54)cc3F)[C@@H]3CCCNC3)nccc2c1 [Example 147, (R)-4-(3H-[1,2,3]triazolo[4,5-b]pyridin-3-yl)-2-fluoro-N-(6-cyanoisoquinolin-1-yl)-N-(piperidin-3-yl)benzamide] | 1.38 µM
29 | NC(=O)CCc1ccc2ccnc(N(C(=O)c3ccc(-n4nnc5cccnc54)cc3F)[C@@H]3CCCNC3)c2c1 [Example 148, (R)-4-(3H-[1,2,3]triazolo[4,5-b]pyridin-3-yl)-N-(7-(3-amino-3-oxopropyl)isoquinolin-1-yl)-2-fluoro-N-(piperidin-3-yl)benzamide] | 13.8 µM
30 | NC(=O)/C=C/c1ccc2ccnc(N(C(=O)c3ccc(-n4nnc5cccnc54)cc3F)[C@@H]3CCCNC3)c2c1 [Example 149, (R,E)-4-(3H-[1,2,3]triazolo[4,5-b]pyridin-3-yl)-N-(7-(3-amino-3-oxoprop-1-en-1-yl)isoquinolin-1-yl)-2-fluoro-N-(piperidin-3-yl)benzamide] | 3.8 µM
